Laboratory results taken from publication PMC9268515, “UGT1A1 and UGT1A9 Are Responsible for Phase II Metabolism of Tectorigenin and Irigenin In Vitro” (Molecules, 2022).

Biological target: T1, UGT2B15 (Homo sapiens, UniProt P54855)
T1 construct: purchased BD Biosciences (Woburn, MA, USA)
T1 sequence (P54855 24-530): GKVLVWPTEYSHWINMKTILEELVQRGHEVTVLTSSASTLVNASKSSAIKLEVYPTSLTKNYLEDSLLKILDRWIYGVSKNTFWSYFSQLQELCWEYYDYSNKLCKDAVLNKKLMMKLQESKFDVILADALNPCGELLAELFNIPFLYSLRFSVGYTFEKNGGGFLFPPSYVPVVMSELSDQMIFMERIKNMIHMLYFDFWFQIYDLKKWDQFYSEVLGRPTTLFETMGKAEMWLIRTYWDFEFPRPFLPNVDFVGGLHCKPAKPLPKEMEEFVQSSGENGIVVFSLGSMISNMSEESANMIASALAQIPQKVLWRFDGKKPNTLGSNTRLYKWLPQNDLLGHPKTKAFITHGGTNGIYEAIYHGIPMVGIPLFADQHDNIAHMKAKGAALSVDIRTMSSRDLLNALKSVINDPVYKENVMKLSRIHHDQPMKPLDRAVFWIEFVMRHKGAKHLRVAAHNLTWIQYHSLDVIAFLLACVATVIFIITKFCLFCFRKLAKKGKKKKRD
Test: Recombinant UGT reaction screening, UGT2B15
Type: in vitro ADME
Description: UGT reaction screening of tectorigenin and irigenin was conducted using nine commercially available human UGTs (UGT1A1/1A3/1A4/1A6/1A9/2B4/2B7/2B15/2B17). Furthermore, we studied the enzymatic kinetic characteristics of tectorigenin and irigenin using UGT1A1 and UGT1A9. Six concentrations of tectorigenin and irigenin (1, 3, 10, 30, 100, and 300 μM) were incubated in triplicate in order to obtain the enzyme kinetic characteristics of tectorigenin and irigenin glucuronide.

Activity in glucuronidation of tectorigenin: none
SMILES: COc1c(O)cc2occ(-c3ccc(O)cc3)c(=O)c2c1O [Tectorigenin, 5,7,4′-trihydroxyl-6-methoxyl isoflavone]
